Data: PMC10591924 (Journal of medicinal chemistry, 2023)

How the values were obtained:
HDAC1 = HDAC1 (Homo sapiens, UniProt Q13547); assay: Preincubation HDAC inhibition assay, HDAC1; assay type: biochemical; details: preincubation 1 h at 25 °C
HDAC2 = HDAC2 (Homo sapiens, UniProt Q92769); assay: Preincubation HDAC inhibition assay, HDAC2; assay type: biochemical; details: preincubation 1 h at 25 °C
HDAC4 = HDAC4 (Homo sapiens, UniProt P56524); assay: Preincubation HDAC inhibition assay, HDAC4; assay type: biochemical; details: preincubation 1 h at 25 °C
HDAC6 [1] = biological target: T1, HDAC6 (Homo sapiens, UniProt Q9UBN7); assay: IC50-shift experiments at HDAC6; assay type: biochemical; details: preincubation 5, 60 and 120 min
T1 sequence (Q9UBN7 1-1215): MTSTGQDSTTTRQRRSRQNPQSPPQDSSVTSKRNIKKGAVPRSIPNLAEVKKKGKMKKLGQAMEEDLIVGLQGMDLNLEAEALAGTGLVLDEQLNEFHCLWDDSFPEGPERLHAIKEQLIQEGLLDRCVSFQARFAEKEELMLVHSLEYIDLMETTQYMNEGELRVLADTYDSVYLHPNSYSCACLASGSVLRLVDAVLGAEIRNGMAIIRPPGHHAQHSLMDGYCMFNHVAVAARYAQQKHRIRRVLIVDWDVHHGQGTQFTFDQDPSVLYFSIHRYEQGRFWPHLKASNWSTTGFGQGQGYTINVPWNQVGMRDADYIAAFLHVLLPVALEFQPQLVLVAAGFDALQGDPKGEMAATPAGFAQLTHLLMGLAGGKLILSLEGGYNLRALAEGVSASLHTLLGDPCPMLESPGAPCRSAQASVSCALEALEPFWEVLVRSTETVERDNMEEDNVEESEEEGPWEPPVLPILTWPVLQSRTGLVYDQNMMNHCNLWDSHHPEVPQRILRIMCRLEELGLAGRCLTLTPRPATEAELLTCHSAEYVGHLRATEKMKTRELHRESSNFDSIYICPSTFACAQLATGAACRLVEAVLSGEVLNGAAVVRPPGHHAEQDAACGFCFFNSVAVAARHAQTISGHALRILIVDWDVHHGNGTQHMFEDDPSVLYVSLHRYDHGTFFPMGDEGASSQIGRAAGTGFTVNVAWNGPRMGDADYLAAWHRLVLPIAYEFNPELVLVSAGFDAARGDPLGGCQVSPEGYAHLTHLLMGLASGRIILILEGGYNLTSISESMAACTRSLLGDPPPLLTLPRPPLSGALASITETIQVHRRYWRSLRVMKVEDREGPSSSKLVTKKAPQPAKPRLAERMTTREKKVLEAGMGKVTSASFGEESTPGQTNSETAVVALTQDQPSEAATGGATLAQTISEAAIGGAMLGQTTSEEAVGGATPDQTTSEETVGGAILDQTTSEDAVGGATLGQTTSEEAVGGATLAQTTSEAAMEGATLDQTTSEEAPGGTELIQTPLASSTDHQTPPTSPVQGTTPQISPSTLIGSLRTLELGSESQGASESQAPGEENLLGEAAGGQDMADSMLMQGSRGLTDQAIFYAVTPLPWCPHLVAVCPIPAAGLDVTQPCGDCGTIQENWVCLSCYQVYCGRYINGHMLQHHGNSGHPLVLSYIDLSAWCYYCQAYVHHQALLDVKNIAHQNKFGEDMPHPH

HDAC6 [2] = biological target: T1, HDAC6; assay: Binding kinetics via the Progression Method at HDAC6; assay type: biochemical; details: progression curves, substrate at five times KM, 37 °C
[3] = LC-MS control: inhibitor in size exclusion buffer without enzyme; assay type: physicochemical; details: 100 μM inhibitor in size exclusion buffer only (pH 7.5), overnight
HDAC6 [4] = biological target: T1, HDAC6; assay: Preincubation HDAC inhibition assay, HDAC6; assay type: biochemical; details: preincubation 1 h at 25 °C

HDAC2, sequence (Q92769 whole entry): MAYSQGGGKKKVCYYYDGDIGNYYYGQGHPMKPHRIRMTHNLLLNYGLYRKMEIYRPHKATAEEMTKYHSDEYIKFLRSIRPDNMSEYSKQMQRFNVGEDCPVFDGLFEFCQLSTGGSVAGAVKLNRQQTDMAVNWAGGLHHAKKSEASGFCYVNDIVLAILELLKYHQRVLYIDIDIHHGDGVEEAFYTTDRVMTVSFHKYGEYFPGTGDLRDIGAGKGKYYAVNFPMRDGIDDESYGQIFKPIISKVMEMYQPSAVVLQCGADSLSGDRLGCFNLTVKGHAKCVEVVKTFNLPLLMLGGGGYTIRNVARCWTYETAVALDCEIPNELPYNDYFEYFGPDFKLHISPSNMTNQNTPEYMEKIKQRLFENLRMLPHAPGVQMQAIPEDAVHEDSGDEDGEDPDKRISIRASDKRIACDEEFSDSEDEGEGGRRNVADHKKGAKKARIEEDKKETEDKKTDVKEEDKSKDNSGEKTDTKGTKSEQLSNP
HDAC1, sequence (Q13547 whole entry): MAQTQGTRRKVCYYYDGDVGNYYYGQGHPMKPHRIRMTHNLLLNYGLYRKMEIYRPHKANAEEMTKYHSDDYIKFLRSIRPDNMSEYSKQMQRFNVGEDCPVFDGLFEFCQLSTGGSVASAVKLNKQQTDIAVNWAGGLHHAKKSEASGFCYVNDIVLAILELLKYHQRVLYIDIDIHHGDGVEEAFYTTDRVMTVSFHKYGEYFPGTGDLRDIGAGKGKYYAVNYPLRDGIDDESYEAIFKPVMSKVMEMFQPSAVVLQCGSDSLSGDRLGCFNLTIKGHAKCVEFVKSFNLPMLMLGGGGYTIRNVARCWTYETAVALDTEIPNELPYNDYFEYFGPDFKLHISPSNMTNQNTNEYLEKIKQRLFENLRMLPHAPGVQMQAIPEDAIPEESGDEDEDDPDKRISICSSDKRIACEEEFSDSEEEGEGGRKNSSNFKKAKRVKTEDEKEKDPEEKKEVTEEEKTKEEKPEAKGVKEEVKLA
HDAC4, sequence (P56524 whole entry): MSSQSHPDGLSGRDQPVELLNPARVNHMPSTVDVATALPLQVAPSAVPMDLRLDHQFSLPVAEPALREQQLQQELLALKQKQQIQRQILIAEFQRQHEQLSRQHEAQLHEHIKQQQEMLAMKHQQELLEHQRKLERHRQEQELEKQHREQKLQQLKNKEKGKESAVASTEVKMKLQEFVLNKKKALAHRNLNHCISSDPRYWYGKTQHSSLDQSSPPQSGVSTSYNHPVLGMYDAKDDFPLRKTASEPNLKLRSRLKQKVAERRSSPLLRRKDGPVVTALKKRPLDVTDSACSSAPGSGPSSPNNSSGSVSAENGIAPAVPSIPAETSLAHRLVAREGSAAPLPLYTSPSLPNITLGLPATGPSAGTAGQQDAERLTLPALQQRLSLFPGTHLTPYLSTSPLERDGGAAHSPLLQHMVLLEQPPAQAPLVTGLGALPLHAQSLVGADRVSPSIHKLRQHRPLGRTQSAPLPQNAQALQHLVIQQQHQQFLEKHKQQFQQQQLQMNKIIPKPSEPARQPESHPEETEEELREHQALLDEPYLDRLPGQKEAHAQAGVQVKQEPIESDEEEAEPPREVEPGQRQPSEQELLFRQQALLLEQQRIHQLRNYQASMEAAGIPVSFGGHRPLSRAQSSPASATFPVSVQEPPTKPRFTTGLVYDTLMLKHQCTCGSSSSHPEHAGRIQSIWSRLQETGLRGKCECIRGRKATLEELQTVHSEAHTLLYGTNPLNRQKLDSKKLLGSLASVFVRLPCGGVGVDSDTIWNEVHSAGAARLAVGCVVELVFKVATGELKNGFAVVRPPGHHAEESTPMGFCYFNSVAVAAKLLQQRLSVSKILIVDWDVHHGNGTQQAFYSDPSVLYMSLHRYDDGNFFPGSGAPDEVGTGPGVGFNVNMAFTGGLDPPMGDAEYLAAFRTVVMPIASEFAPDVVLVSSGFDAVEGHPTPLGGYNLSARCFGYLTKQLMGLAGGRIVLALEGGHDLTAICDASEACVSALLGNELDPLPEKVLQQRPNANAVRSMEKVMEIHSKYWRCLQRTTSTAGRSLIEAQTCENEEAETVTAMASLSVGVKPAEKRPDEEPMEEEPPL

| SMILES | HDAC1 percent inhibition at 10 μM (HDAC1) | HDAC2 percent inhibition at 10 μM (HDAC2) | HDAC4 percent inhibition at 10 μM (HDAC4) | Slow-binding mechanism from kobs vs inhibitor concentration (HDAC6 [2]) | Hydrolysis in the absence of enzyme [3] | HDAC6 percent inhibition at 10 μM (HDAC6 [4]) | Dependence of HDAC6 inhibition on preincubation time (HDAC6 [1]) |
| --- | --- | --- | --- | --- | --- | --- | --- |
| O=C(NNC(=O)C(F)F)c1cnc(NCc2ccccc2)nc1 [Compound 13, 2-(Benzylamino)-N’-(2,2-difluoroacetyl)pyrimidine-5-carbohydrazide] | – | – | – | – | – | does not show any inhibitory activity | – |
| CCCCN(Cc1ccc(-c2nnc(C(F)F)o2)cc1)C(=O)c1ccccc1 [Compound 10, N-Butyl-N-{4-[5-(difluoromethyl)-1,3,4-oxadiazol-2-yl]benzyl}benzamide] | inactive | inactive | inactive | – | – | only moderate inhibitory activity | – |
| O=C(CCCCCCC(=O)Nc1ccccc1)NO [Vorinostat, reference compound] | – | – | – | – | – | – | did not depend on the preincubation time |
| FC(F)(F)c1nnc(-c2cnc(NCc3ccccc3)nc2)o1 [Compound 17, N-Benzyl-5-[5-(trifluoromethyl)-1,3,4-oxadiazol-2-yl]pyrimidin-2-amine] | no inhibition | no inhibition | no inhibition | single-step slow-binding mechanism I | – | – | substantial decrease in the HDAC6 IC50 values upon preincubation |
| CN(C)c1ccc(C(=O)N(CC(=O)NCc2ccccc2)Cc2ccc(-c3nnc(C(F)F)o3)cc2)cc1 [Compound 12, N-[2-(Benzylamino)-2-oxoethyl]-N-{4-[5-(difluoromethyl)-1,3,4-oxadiazol-2-yl]benzyl}−4-(dimethylamino)benzamide] | inactive | inactive | inactive | – | – | only moderate inhibitory activity | – |

Second part, led by results:

| HDAC1 percent inhibition at 10 μM (HDAC1) | HDAC2 percent inhibition at 10 μM (HDAC2) | HDAC4 percent inhibition at 10 μM (HDAC4) | Slow-binding mechanism from kobs vs inhibitor concentration (HDAC6 [2]) | Hydrolysis in the absence of enzyme [3] | HDAC6 percent inhibition at 10 μM (HDAC6 [4]) | SMILES | Dependence of HDAC6 inhibition on preincubation time (HDAC6 [1]) |
| --- | --- | --- | --- | --- | --- | --- | --- |
| no activity | no activity | no activity | mechanism II | does not undergo hydrolysis | – | FC(F)c1nnc(-c2cnc(NCc3ccccc3)nc2)o1 [Compound 6, N-Benzyl-5-[5-(difluoromethyl)-1,3,4-oxadiazol-2-yl]pyrimidin-2-amine] | highly dependent on the preincubation time |
| inactive | inactive | inactive | – | – | only moderate inhibitory activity | CCCCN(Cc1ccc(-c2nnc(C(F)F)o2)cc1)C(=O)Nc1ccccc1 [Compound 9, 1-Butyl-1-{4-[5-(difluoromethyl)-1,3,4-oxadiazol-2-yl]benzyl}−3-phenylurea] | – |
| no activity | no activity | no activity | – | – | – | COc1ccc(CNc2ncc(-c3nnc(C(F)F)o3)cn2)cc1 [Compound 7, 5-[5-(Difluoromethyl)-1,3,4-oxadiazol-2-yl]-N-(4-methoxybenzyl)pyrimidin-2-amine] | – |
